Test [1] relates to Plasmodium falciparum. In words: Antiplasmodial activity against asexual blood stage Plasmodium falciparum 3D7A MR4 infected in human RBCs assessed as decrease in [3H]-hypoxanthine incorporation pretreated for 24 hrs in presence of hypoxanthine followed by [3H]-hypoxanthine addition after 24 hrs by microbeta scintillation counter analysis. In kind it is functional, organism-based.

The target in test [2] is T1, Glycylpeptide N-tetradecanoyltransferase (Plasmodium falciparum (isolate 3D7)) (UniProt Q8ILW6).
T1 sequence (whole entry): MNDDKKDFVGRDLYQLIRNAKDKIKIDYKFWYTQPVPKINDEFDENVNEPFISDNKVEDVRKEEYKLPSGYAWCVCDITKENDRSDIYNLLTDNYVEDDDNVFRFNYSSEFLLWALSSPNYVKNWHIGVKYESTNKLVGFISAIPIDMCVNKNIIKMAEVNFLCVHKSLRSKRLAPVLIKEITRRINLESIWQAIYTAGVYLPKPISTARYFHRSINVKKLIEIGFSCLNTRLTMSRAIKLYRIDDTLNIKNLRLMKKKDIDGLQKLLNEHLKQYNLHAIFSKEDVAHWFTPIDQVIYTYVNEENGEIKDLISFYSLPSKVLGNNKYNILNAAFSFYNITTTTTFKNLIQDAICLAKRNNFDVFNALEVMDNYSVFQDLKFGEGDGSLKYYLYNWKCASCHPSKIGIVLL
In words: Competitive inhibition of Plasmodium falciparum NMT (27 to 410 residues) expressed in Escherichia coli Rosetta (DE3) using H-GLYVSRLFNRLFQKK-NH2 as substrate.

Test [3] has as its target T1, Glycylpeptide N-tetradecanoyltransferase (Plasmodium falciparum (isolate 3D7)). In words: Binding affinity to Plasmodium falciparum NMT (27 to 410 residues) expressed in Escherichia coli Rosetta (DE3) assessed as change in melting temperature at 100 uM in presence of 100 uM myristoyl-CoA by Sypro orange dye based differential scanning fluorimetry (reference value: 0 degreeC). In general terms: Differential scanning fluorimetry follows unfolding on heating by fluorescence.

The target is the same in test [4]. In words: Binding affinity to Plasmodium falciparum NMT (27 to 410 residues) expressed in Escherichia coli Rosetta (DE3) assessed as change in melting temperature at 100 uM in absence of 100 uM myristoyl-CoA by Sypro orange dye based differential scanning fluorimetry (reference value: 0 degreeC).

The structures appear in SMILES notation. Activity calls are given as the source filed them. The calls are words filed in the database; no cut-off is given here.

Usually ΔTm stands for the change in melting temperature against a reference sample. As for `Cc1ccc(-n2nc(C(=O)N3CCCN(C)CC3)c3ccccc32)cc1`, in test [1], the result was inactive. Besides, the inhibition entry in test [2] is “Active”. The ΔTm in test [3] was 6.17 °C; in test [4] it was -0.02 °C.
On the same counts, the results for `O=C(c1cccc(NCc2cc(-c3ccc(Cl)cc3)c[nH]c2=O)c1)N1CCOCC1` are “inactive”, “Active”, 2.16 °C and -0.3 °C.
For the molecule `CCN(c1ccccc1)S(=O)(=O)c1ccc(Cl)c(C(=O)Nc2ccccc2N2CCCC2=O)c1`, the outcome in test [1] was inactive. Further, the thermal shift (ΔTm) in test [3] came to 7.33 °C; in test [4], 1.42 °C.
As to `O=C(c1ccc2c(c1)N(Cc1ccccc1)C(=O)c1ccccc1[S+]2[O-])N1CCCCC1` (stereo not drawn), in test [1], the outcome was inactive. Besides, the figures for the thermal shift (ΔTm) in test [3] and in test [4] were 8.05 °C and 1.84 °C, respectively.
Take `Clc1cccc(O[C@H]2C[C@H](NCc3cnc4[nH]ccc4c3)C2)c1Cl`: the result in test [1] was inactive. Also, in test [2], the inhibition entry is “Active”. Further, the shift in melting temperature (ΔTm) in test [3] was 6.57 °C; in test [4], -2.91 °C.

For the origin of these results see ChEMBL document CHEMBL4376863, “Identification of Selective Inhibitors of Plasmodium N-Myristoyltransferase by High-Throughput Screening” (J Med Chem, 2020).
